What was measured:
Type in all cases: in vivo
[1] = tested on: Diabrotica balteata (Corn root worm); experiment: Diabrotica balteata (Corn root worm) larval mortality, artificial diet in 24-well MTP; conditions: 120 h, application rate 200 ppm (concentration in well 18 ppm), L2 larvae, larval mortality after 5 days
[2] = tested on: Plutella xylostella (Diamond back moth); experiment: Plutella xylostella (Diamond back moth) larval mortality, artificial diet in 24-well MTP; conditions: 144 h, application rate 200 ppm (concentration in well 18 ppm), L2 larvae, larval mortality after 6 days
[3] = tested on: Thrips tabaci (Onion thrips); experiment: Thrips tabaci (Onion thrips) mortality, sprayed sunflower leaf discs; conditions: foliar, 168 h, 200 ppm spray on sunflower leaf discs, mixed ages, mortality after 7 days
[4] = tested on: Spodoptera littoralis (Egyptian cotton leafworm); experiment: Spodoptera littoralis (Egyptian cotton leafworm) mortality, sprayed cotton leaf discs; conditions: foliar, 72 h, 200 ppm spray on cotton leaf discs, L1 larvae, mortality 3 DAT
[5] = tested on: Myzus persicae (Green peach aphid); experiment: Myzus persicae (Green peach aphid) mortality, test compounds mixed with Sucrose solution under Parafilm; conditions: 120 h, 12.5 ppm in Sucrose solution, infested pea seedlings on Parafilm, mortality 5 days after infestation
[6] = tested on: Tetranychus urticae (Two-spotted spider mite); experiment: Tetranychus urticae (Two-spotted spider mite) mortality, sprayed bean leaf discs; conditions: foliar, 192 h, 200 ppm spray on bean leaf discs, mixed ages, egg, larval and adult mortality after 8 days
[7] = tested on: Myzus persicae (Green peach aphid); experiment: Myzus persicae (Green peach aphid) mortality, sprayed sunflower leaf discs; conditions: foliar, 144 h, 200 ppm spray on sunflower leaf discs, mixed ages, mortality 6 DAT

O=C(Nc1cccc(C(=O)Nc2c(Cl)cc(C(F)(C(F)(F)F)C(F)(F)F)cc2OC(F)F)c1F)c1ccc([N+](=O)[O-])cc1 [Compound 49]
≥ 80%: pest or weed control at 200 ppm [1] | pest or weed control at 200 ppm [2] | pest or weed control at 200 ppm [3] | pest or weed control at 200 ppm [4] | pest or weed control at 12.5 ppm [5] | pest or weed control at 200 ppm [6] | pest or weed control at 200 ppm [7]

O=C(Nc1cccc(C(=O)Nc2c(Br)cc(C(F)(C(F)(F)F)C(F)(F)F)cc2OC(F)F)c1F)c1ccccc1Cl [Compound 21]
≥ 80%: pest or weed control at 200 ppm [1] | pest or weed control at 200 ppm [2] | pest or weed control at 200 ppm [3] | pest or weed control at 200 ppm [4] | pest or weed control at 12.5 ppm [5] | pest or weed control at 200 ppm [6] | pest or weed control at 200 ppm [7]

O=C(Nc1cccc(C(=O)Nc2c(Br)cc(C(F)(C(F)(F)F)C(F)(F)F)cc2OC(F)F)c1F)c1cc(Cl)ccc1F [Compound 24]
≥ 80%: pest or weed control at 200 ppm [1] | pest or weed control at 200 ppm [2] | pest or weed control at 200 ppm [3] | pest or weed control at 200 ppm [4] | pest or weed control at 12.5 ppm [5] | pest or weed control at 200 ppm [6] | pest or weed control at 200 ppm [7]

N#Cc1ccc(C(=O)Nc2cccc(C(=O)Nc3c(Cl)cc(C(F)(C(F)(F)F)C(F)(F)F)cc3OC(F)F)c2F)cc1 [Compound 13]
≥ 80%: pest or weed control at 200 ppm [1] | pest or weed control at 200 ppm [2] | pest or weed control at 200 ppm [3] | pest or weed control at 200 ppm [4] | pest or weed control at 12.5 ppm [5] | pest or weed control at 200 ppm [6] | pest or weed control at 200 ppm [7]

CCN(C(=O)c1ccc(F)cc1)c1cccc(C(=O)Nc2c(Cl)cc(C(F)(C(F)(F)F)C(F)(F)F)cc2OC(F)F)c1OC [Compound 156]
≥ 80%: pest or weed control at 200 ppm [1] | pest or weed control at 200 ppm [2] | pest or weed control at 200 ppm [3] | pest or weed control at 200 ppm [4] | pest or weed control at 12.5 ppm [5] | pest or weed control at 200 ppm [6] | pest or weed control at 200 ppm [7]

O=C(Nc1cccc(C(=O)Nc2c(Br)cc(C(F)(C(F)(F)F)C(F)(F)F)cc2OC(F)F)c1F)c1ccc(C(F)(F)F)cc1 [Compound 28]
≥ 80%: pest or weed control at 200 ppm [1] | pest or weed control at 200 ppm [2] | pest or weed control at 200 ppm [3] | pest or weed control at 200 ppm [4] | pest or weed control at 12.5 ppm [5] | pest or weed control at 200 ppm [6] | pest or weed control at 200 ppm [7]

O=C(Nc1cccc(C(=O)Nc2c(Br)cc(C(F)(C(F)(F)F)C(F)(F)F)cc2OC(F)F)c1F)c1ccccc1F [Compound 83]
≥ 80%: pest or weed control at 200 ppm [1] | pest or weed control at 200 ppm [2] | pest or weed control at 200 ppm [3] | pest or weed control at 200 ppm [4] | pest or weed control at 12.5 ppm [5] | pest or weed control at 200 ppm [6] | pest or weed control at 200 ppm [7]

CCN(C(=O)c1ccc(F)cc1Cl)c1cccc(C(=O)Nc2c(Cl)cc(C(F)(C(F)(F)F)C(F)(F)F)cc2OC(F)F)c1F [Compound 122]
≥ 80%: pest or weed control at 200 ppm [1] | pest or weed control at 200 ppm [2] | pest or weed control at 200 ppm [3] | pest or weed control at 200 ppm [4] | pest or weed control at 12.5 ppm [5] | pest or weed control at 200 ppm [6] | pest or weed control at 200 ppm [7]

N#Cc1ccc(C(=O)Nc2cccc(C(=O)Nc3c(Br)cc(C(F)(C(F)(F)F)C(F)(F)F)cc3OC(F)F)c2F)cc1 [Compound 5]
≥ 80%: pest or weed control at 200 ppm [1] | pest or weed control at 200 ppm [2] | pest or weed control at 200 ppm [3] | pest or weed control at 200 ppm [4] | pest or weed control at 12.5 ppm [5] | pest or weed control at 200 ppm [6] | pest or weed control at 200 ppm [7]

COc1c(NC(=O)c2ccncc2)cccc1C(=O)Nc1c(Br)cc(C(F)(C(F)(F)F)C(F)(F)F)cc1OC(F)F [Compound 3]
≥ 80%: pest or weed control at 200 ppm [1] | pest or weed control at 200 ppm [2] | pest or weed control at 200 ppm [3] | pest or weed control at 200 ppm [4] | pest or weed control at 12.5 ppm [5] | pest or weed control at 200 ppm [6] | pest or weed control at 200 ppm [7]

COc1c(NC(=O)c2ccc([N+](=O)[O-])cc2Cl)cccc1C(=O)Nc1c(Br)cc(C(F)(C(F)(F)F)C(F)(F)F)cc1OC(F)F [Compound 47]
≥ 80%: pest or weed control at 200 ppm [1] | pest or weed control at 200 ppm [2] | pest or weed control at 200 ppm [3] | pest or weed control at 200 ppm [4] | pest or weed control at 12.5 ppm [5] | pest or weed control at 200 ppm [6] | pest or weed control at 200 ppm [7]

O=C(Nc1cccc(C(=O)Nc2c(Br)cc(C(F)(C(F)(F)F)C(F)(F)F)cc2OC(F)F)c1F)c1ccc(F)cc1 [Compound 32]
≥ 80%: pest or weed control at 200 ppm [1] | pest or weed control at 200 ppm [2] | pest or weed control at 200 ppm [3] | pest or weed control at 200 ppm [4] | pest or weed control at 12.5 ppm [5] | pest or weed control at 200 ppm [6] | pest or weed control at 200 ppm [7]

COc1c(NC(=O)c2ccc([N+](=O)[O-])cc2Cl)cccc1C(=O)Nc1c(Cl)cc(C(F)(C(F)(F)F)C(F)(F)F)cc1OC(F)F [Compound 86]
≥ 80%: pest or weed control at 200 ppm [1] | pest or weed control at 200 ppm [2] | pest or weed control at 200 ppm [3] | pest or weed control at 200 ppm [4] | pest or weed control at 12.5 ppm [5] | pest or weed control at 200 ppm [6] | pest or weed control at 200 ppm [7]

COc1c(NC(=O)c2ccc(C#N)cc2)cccc1C(=O)Nc1c(Cl)cc(C(F)(C(F)(F)F)C(F)(F)F)cc1OC(F)F [Compound 14, N-[2-chloro-6-(difluoromethoxy)-4-[1,2,2,2-tetrafluoro-1-(trifluoromethyl)ethyl]phenyl]-3-[(4-cyanobenzoyl)amino]-2-methoxy-benzamide]
≥ 80%: pest or weed control at 200 ppm [1] | pest or weed control at 200 ppm [2] | pest or weed control at 200 ppm [3] | pest or weed control at 200 ppm [4] | pest or weed control at 12.5 ppm [5] | pest or weed control at 200 ppm [6] | pest or weed control at 200 ppm [7]

O=C(Nc1cccc(C(=O)Nc2c(Br)cc(C(F)(C(F)(F)F)C(F)(F)F)cc2OC(F)F)c1F)c1ccncc1 [Compound 1]
≥ 80%: pest or weed control at 200 ppm [1] | pest or weed control at 200 ppm [2] | pest or weed control at 200 ppm [3] | pest or weed control at 200 ppm [4] | pest or weed control at 12.5 ppm [5] | pest or weed control at 200 ppm [6] | pest or weed control at 200 ppm [7]

CCN(C(=O)c1ccc(F)cc1)c1cccc(C(=O)Nc2c(Br)cc(C(F)(C(F)(F)F)C(F)(F)F)cc2OC(F)F)c1F [Compound 128]
≥ 80%: pest or weed control at 200 ppm [1] | pest or weed control at 200 ppm [2] | pest or weed control at 200 ppm [3] | pest or weed control at 200 ppm [4] | pest or weed control at 12.5 ppm [5] | pest or weed control at 200 ppm [6] | pest or weed control at 200 ppm [7]

CCN(C(=O)c1ccncc1)c1cccc(C(=O)Nc2c(Cl)cc(C(F)(C(F)(F)F)C(F)(F)F)cc2OC(F)F)c1OC [Compound 20]
≥ 80%: pest or weed control at 200 ppm [1] | pest or weed control at 200 ppm [2] | pest or weed control at 200 ppm [3] | pest or weed control at 200 ppm [4] | pest or weed control at 12.5 ppm [5] | pest or weed control at 200 ppm [6] | pest or weed control at 200 ppm [7]

CCN(C(=O)c1cccc(F)c1F)c1cccc(C(=O)Nc2c(Br)cc(C(F)(C(F)(F)F)C(F)(F)F)cc2OC(F)F)c1F [Compound 108]
≥ 80%: pest or weed control at 200 ppm [1] | pest or weed control at 200 ppm [2] | pest or weed control at 200 ppm [3] | pest or weed control at 200 ppm [4] | pest or weed control at 12.5 ppm [5] | pest or weed control at 200 ppm [6] | pest or weed control at 200 ppm [7]

COc1c(NC(=O)c2ccc(C(F)(F)F)cc2)cccc1C(=O)Nc1c(Br)cc(C(F)(C(F)(F)F)C(F)(F)F)cc1OC(F)F [Compound 54]
≥ 80%: pest or weed control at 200 ppm [1] | pest or weed control at 200 ppm [2] | pest or weed control at 200 ppm [3] | pest or weed control at 200 ppm [4] | pest or weed control at 12.5 ppm [5] | pest or weed control at 200 ppm [6] | pest or weed control at 200 ppm [7]
